How the values were obtained:
Format in all cases: in vivo
[1] = tested on: barnyardgrass; experiment: Test Example 1: herbicidal effects in preemergence treatment under submerged conditions; details: dose 2.52 g/a
Outline: (§1)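 Weed seeds and 2.5-leaf rice seedlings shared each flooded cup of alluvial soil. Dosing, expressed as g per are, was by pouring water-diluted emulsifiable concentrate onto the surface on sowing day. Mortality was graded 0 to 5 after three weeks' growth.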

[2] = tested on: bulrush; experiment: as above; details: dose 2.52 g/a
Outline: as §1

[3] = tested on: ducksalad; experiment: as above; details: dose 2.52 g/a
Outline: as §1

[4] = tested on: transplanted rice; experiment: Test Example 1: preemergence treatment under submerged conditions, effect on crop; details: dose 2.52 g/a
Outline: as §1

[5] = tested on: barnyardgrass; experiment: Test Example 2: herbicidal effects during the vegetation period under submerged conditions; details: treatment during the vegetation period under submerged conditions; dose 2.52 g/a
Outline: (§2)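 Barnyardgrass, bulrush and ducksalad were co-sown in alluvial soil flooded to 4 cm and grown in a greenhouse at 25 to 30° C. At the 1- or 2-leaf stage, water-diluted emulsifiable concentrates went onto the water surface at set doses (g/a). Herbicidal effect was scored three weeks later on a graded scale.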

[6] = tested on: bulrush; experiment: as above; details: treatment during the vegetation period under submerged conditions; dose 2.52 g/a
Outline: as §2

[7] = tested on: ducksalad; experiment: as above; details: treatment during the vegetation period under submerged conditions; dose 2.52 g/a
Outline: as §2

[8] = tested on: Italian ryegrass; experiment: Test Example 3: herbicidal effects in soil treatment; details: dose 3.2 g/a
Outline: (§3)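 Seeds were sown in sterilized diluvial soil and covered with about 1.5 cm of soil. Compounds, formulated as emulsifiable concentrates and diluted with water, were sprayed evenly over the soil surface at set doses in g/a. Herbicidal effect was scored on a rating scale three weeks later.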

[9] = tested on: barnyardgrass; experiment: as above; details: dose 3.2 g/a
Outline: as §3

[10] = tested on: beadstraw; experiment: as above; details: dose 3.2 g/a
Outline: as §3

[11] = tested on: common chickweed; experiment: as above; details: dose 3.2 g/a
Outline: as §3

[12] = tested on: common lambsquater; experiment: as above; details: dose 3.2 g/a
Outline: as §3

[13] = tested on: common ragweed; experiment: as above; details: dose 3.2 g/a
Outline: as §3

[14] = tested on: giant foxtail; experiment: as above; details: dose 3.2 g/a
Outline: as §3

[15] = tested on: large crabgrass; experiment: as above; details: dose 3.2 g/a
Outline: as §3

[16] = tested on: redroot pigweed; experiment: as above; details: dose 3.2 g/a
Outline: as §3

[17] = tested on: velvetleaf; experiment: as above; details: dose 3.2 g/a
Outline: as §3

[18] = tested on: water foxtail; experiment: as above; details: dose 3.2 g/a
Outline: as §3

[19] = tested on: wild oat; experiment: as above; details: dose 3.2 g/a
Outline: as §3

[20] = tested on: Italian ryegrass; experiment: Test Example 4: herbicidal effect in foliage treatment; details: dose 3.2 g/a, three weeks after application
Outline: (§4)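 14-day greenhouse-grown plants (25–30° C) sprayed on foliage with diluted EC; dose as g/a; effect graded after 3 weeks.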

[21] = tested on: barnyardgrass; experiment: as above; details: dose 3.2 g/a, three weeks after application
Outline: as §4

[22] = tested on: beadstraw; experiment: as above; details: dose 3.2 g/a, three weeks after application
Outline: as §4

[23] = tested on: common chickweed; experiment: as above; details: dose 3.2 g/a, three weeks after application
Outline: as §4

[24] = tested on: common lambsquater; experiment: as above; details: dose 3.2 g/a, three weeks after application
Outline: as §4

[25] = tested on: common ragweed; experiment: as above; details: dose 3.2 g/a, three weeks after application
Outline: as §4

[26] = tested on: giant foxtail; experiment: as above; details: dose 3.2 g/a, three weeks after application
Outline: as §4

[27] = tested on: large crabgrass; experiment: as above; details: dose 3.2 g/a, three weeks after application
Outline: as §4

[28] = tested on: posumbu knotweed; experiment: as above; details: dose 3.2 g/a, three weeks after application
Outline: as §4

[29] = tested on: redroot pigweed; experiment: as above; details: dose 3.2 g/a, three weeks after application
Outline: as §4

[30] = tested on: velvetleaf; experiment: as above; details: dose 3.2 g/a, three weeks after application
Outline: as §4

[31] = tested on: water foxtail; experiment: as above; details: dose 3.2 g/a, three weeks after application
Outline: as §4

[32] = tested on: wild oat; experiment: as above; details: dose 3.2 g/a, three weeks after application
Outline: as §4

SMILES | A: barnyardgrass, herbicidal effect (evaluation scale 0-5) [1] | B: bulrush, herbicidal effect (evaluation scale 0-5) [2] | C: ducksalad, herbicidal effect (evaluation scale 0-5) [3] | a: transplanted rice, effect on crop (evaluation scale 0-5) [4] | A: barnyardgrass, herbicidal effect (evaluation scale 0-5) [5] | B: bulrush, herbicidal effect (evaluation scale 0-5) [6] | C: ducksalad, herbicidal effect (evaluation scale 0-5) [7] | H: Italian ryegrass, herbicidal effect (evaluation scale 0-5) [8] | A: barnyardgrass, herbicidal effect (evaluation scale 0-5) [9] | O: beadstraw, herbicidal effect (evaluation scale 0-5) [10] | N: common chickweed, herbicidal effect (evaluation scale 0-5) [11] | L: common lambsquater, herbicidal effect (evaluation scale 0-5) [12] | J: common ragweed, herbicidal effect (evaluation scale 0-5) [13] | E: giant foxtail, herbicidal effect (evaluation scale 0-5) [14] | D: large crabgrass, herbicidal effect (evaluation scale 0-5) [15] | K: redroot pigweed, herbicidal effect (evaluation scale 0-5) [16] | I: velvetleaf, herbicidal effect (evaluation scale 0-5) [17] | G: water foxtail, herbicidal effect (evaluation scale 0-5) [18] | F: wild oat, herbicidal effect (evaluation scale 0-5) [19] | H: Italian ryegrass, herbicidal effect [20] | other results
COC(=O)N(c1ccccc1CN1COC(C)(C)C(F)C1=O)S(=O)(=O)C(F)(F)F (stereo not shown) [II-33] | 5 (mortality of 90% or above (nearly complete death)) | 5 (mortality of 90% or above (nearly complete death)) | 5 (mortality of 90% or above (nearly complete death)) | 0 (mortality of less than 5% (almost ineffective)) | 5 (mortality of 90% or above (nearly complete death)) | 5 (mortality of 90% or above (nearly complete death)) | 5 (mortality of 90% or above (nearly complete death)) | 4 (mortality of at least 70% and less than 90%) | 5 (mortality of 90% or above (nearly complete death)) | 4 (mortality of at least 70% and less than 90%) | 3 (mortality of at least 40% and less than 70%) | 0 (mortality of less than 5% (almost ineffective)) | 5 (mortality of 90% or above (nearly complete death)) | 5 (mortality of 90% or above (nearly complete death)) | 5 (mortality of 90% or above (nearly complete death)) | 3 (mortality of at least 40% and less than 70%) | 4 (mortality of at least 70% and less than 90%) | 5 (mortality of 90% or above (nearly complete death)) | 0 (mortality of less than 5% (almost ineffective)) | 4 (mortality of at least 70% and less than 90%) | A: barnyardgrass, herbicidal effect [21]: 4 (mortality of at least 70% and less than 90%); O: beadstraw, herbicidal effect [22]: 4 (mortality of at least 70% and less than 90%); N: common chickweed, herbicidal effect [23]: 3 (mortality of at least 40% and less than 70%); L: common lambsquater, herbicidal effect [24]: 0 (mortality of less than 5% (almost ineffective)); J: common ragweed, herbicidal effect [25]: 3 (mortality of at least 40% and less than 70%); E: giant foxtail, herbicidal effect [26]: 4 (mortality of at least 70% and less than 90%); D: large crabgrass, herbicidal effect [27]: 4 (mortality of at least 70% and less than 90%); M: posumbu knotweed, herbicidal effect [28]: 3 (mortality of at least 40% and less than 70%); K: redroot pigweed, herbicidal effect [29]: 1 (mortality of at least 5% and less than 20%); I: velvetleaf, herbicidal effect [30]: 3 (mortality of at least 40% and less than 70%); G: water foxtail, herbicidal effect [31]: 5 (mortality of 90% or above (nearly complete death)); F: wild oat, herbicidal effect [32]: 0 (mortality of less than 5% (almost ineffective))
CCCOC(=O)N(c1ccccc1CN1COC(C)(C)C(F)C1=O)S(=O)(=O)C(F)(F)F (stereo not shown) [II-35] | 5 (mortality of 90% or above (nearly complete death)) | 5 (mortality of 90% or above (nearly complete death)) | 5 (mortality of 90% or above (nearly complete death)) | 0 (mortality of less than 5% (almost ineffective)) | 5 (mortality of 90% or above (nearly complete death)) | 5 (mortality of 90% or above (nearly complete death)) | 5 (mortality of 90% or above (nearly complete death)) | 4 (mortality of at least 70% and less than 90%) | 5 (mortality of 90% or above (nearly complete death)) | 4 (mortality of at least 70% and less than 90%) | 1 (mortality of at least 5% and less than 20%) | 0 (mortality of less than 5% (almost ineffective)) | 4 (mortality of at least 70% and less than 90%) | 3 (mortality of at least 40% and less than 70%) | 5 (mortality of 90% or above (nearly complete death)) | 2 (mortality of at least 20% and less than 40%) | 3 (mortality of at least 40% and less than 70%) | 5 (mortality of 90% or above (nearly complete death)) | 3 (mortality of at least 40% and less than 70%) | 4 (mortality of at least 70% and less than 90%) | A: barnyardgrass, herbicidal effect [21]: 5 (mortality of 90% or above (nearly complete death)); O: beadstraw, herbicidal effect [22]: 4 (mortality of at least 70% and less than 90%); N: common chickweed, herbicidal effect [23]: 3 (mortality of at least 40% and less than 70%); L: common lambsquater, herbicidal effect [24]: 1 (mortality of at least 5% and less than 20%); J: common ragweed, herbicidal effect [25]: 3 (mortality of at least 40% and less than 70%); E: giant foxtail, herbicidal effect [26]: 3 (mortality of at least 40% and less than 70%); D: large crabgrass, herbicidal effect [27]: 5 (mortality of 90% or above (nearly complete death)); M: posumbu knotweed, herbicidal effect [28]: 3 (mortality of at least 40% and less than 70%); K: redroot pigweed, herbicidal effect [29]: 1 (mortality of at least 5% and less than 20%); I: velvetleaf, herbicidal effect [30]: 0 (mortality of less than 5% (almost ineffective)); G: water foxtail, herbicidal effect [31]: 5 (mortality of 90% or above (nearly complete death)); F: wild oat, herbicidal effect [32]: 0 (mortality of less than 5% (almost ineffective))

Source: patent US20120029187A1, “HALOALKYLSULFONANILIDE DERIVATIVE” (Nissan Chemical Industries, Ltd., priority 2009, published 2012)
